Experimental data: ChEMBL document CHEMBL4831491, “Non-carboxylic acid inhibitors of aldose reductase based on N-substituted thiazolidinedione derivatives” (Eur J Med Chem, 2021)
Values after ≈ are worked out from the molar mass of the structure shown.

Assays:
in vitro [1] = settings: dog, MDCK
Description: Apparent permeability of the compound across apical side to basolateral side in dog MDCK-II cells incubated for 150 mins by LC-MS/MS analysis

in vitro [2] = settings: dog, MDCK; remark: listed apart in the source
Description: Apparent permeability of the compound across basolateral side to apical side in dog MDCK-II cells incubated for 150 mins by LC-MS/MS analysis

in vitro [3] = settings: dog, MDCK; remark: listed apart in the source
Description: Efflux ratio of apparent permeability in dog MDCK-II cells

physchem [4] = settings: PBS buffer, pH 7.4
Rattus norvegicus [5] = species on record: Rattus norvegicus; assay: Inhibition of ALR2 in Wistar rat lens assessed as reduction in NADPH consumption at 30 uM using D,L-glyceraldehyde and NADPH as substrate preincubated for 1 mins followed by substrate addition and measured upto 4 mins by spectrophotometric analysis; type: tissue-based; settings: time 5.0 min
[6] = Solubility of the compound at >30 uM; type: physicochemical
Rattus norvegicus [7] = species on record: Rattus norvegicus; assay: Inhibition of ALR2 in Wistar rat lens assessed as reduction in NADPH consumption at 10 uM using D,L-glyceraldehyde and NADPH as substrate preincubated for 1 mins followed by substrate addition and measured upto 4 mins by spectrophotometric analysis; type: tissue-based; settings: time 5.0 min
[8] = Inhibition of ALR2 in Wistar rat lens assessed as reduction in NADPH consumption using D,L-glyceraldehyde and NADPH as substrate preincubated for 1 mins followed by substrate addition and measured upto 4 mins by spectrophotometric analysis; type: tissue-based
[9] = Inhibition of ALR1 in Wistar rat kidney assessed as reduction in NADPH consumption using sodium D-glucuronate and NADPH as substrate preincubated for 1 mins followed by substrate addition and measured upto 4 mins by spectrophotometric analysis; type: tissue-based
Rattus norvegicus [10] = species on record: Rattus norvegicus; assay: Selectivity index, ratio of IC50 for ALR1 in Wistar rat kidney to IC50 for ALR2 in Wistar rat lens
physchem [11] = settings: n-octanol/PBS buffer, pH 7.4
Rattus norvegicus [12] = species on record: Rattus norvegicus; assay: Inhibition of ALR2 in Wistar rat lens assessed as reduction in NADPH consumption at 50 uM using D,L-glyceraldehyde and NADPH as substrate preincubated for 1 mins followed by substrate addition and measured upto 4 mins by spectrophotometric analysis; type: tissue-based; settings: time 5.0 min
in vitro [13] = settings: human, Caco-2
Description: Apparent permeability of the compound across apical side to basolateral side in human Caco-2 cells incubated for 150 mins by LC-MS/MS analysis

in vitro [14] = settings: human, Caco-2; remark: listed apart in the source
Description: Apparent permeability of the compound across basolateral side to apical side in human Caco-2 cells incubated for 150 mins by LC-MS/MS analysis

in vitro [15] = settings: human, Caco-2; remark: listed apart in the source
Description: Efflux ratio of apparent permeability in human Caco-2 cells

C[C@H]1O[C@@H](O[C@H]2[C@@H](O)C[C@H](O[C@H]3[C@@H](O)C[C@H](O[C@H]4CC[C@@]5(C)[C@H](CC[C@@H]6[C@@H]5C[C@@H](O)[C@]5(C)[C@@H](C7=CC(=O)OC7)CC[C@]65O)C4)O[C@@H]3C)O[C@@H]2C)C[C@H](O)[C@@H]1O [DIGOXIN]
Papp A→B at 2.5 h (in vitro [1]): 0.19 ×10⁻⁶ cm/s
Papp B→A at 2.5 h (in vitro [2]): 5.66 ×10⁻⁶ cm/s
efflux ratio (in vitro [3]): 30.3

CC/C(=C(/CC)c1ccc(O)cc1)c1ccc(O)cc1 [DIETHYLSTILBESTROL]
solubility at 2 h, 200 µM (physchem [4]): 11.9 µM (≈ 3.21 µg/mL)

CCN(CC)C(=O)CN1C(=O)S/C(=C\c2cccs2)C1=O
inhibition (Rattus norvegicus [5]): 6.22%
solubility [6]: Insoluble

O=C(CN1C(=O)S/C(=C\c2ccccc2)C1=O)NCCc1ccccc1
inhibition (Rattus norvegicus [7]): 13.2%
solubility [6]: Insoluble

CCc1ccc(/C=C2\SC(=O)N(CC(=O)N(CC)CC)C2=O)cc1
inhibition (Rattus norvegicus [5]): 5.05%
solubility [6]: Insoluble

CCN(CC)C(=O)CN1C(=O)S/C(=C\c2cccc(OC)c2)C1=O
inhibition (Rattus norvegicus [5]): 15%
solubility [6]: Insoluble

C#CCOc1ccc(/C=C2\SC(=O)N(CC(=O)Nc3ccccc3)C2=O)cc1
IC50 [8]: Nd(Insoluble)
inhibition (Rattus norvegicus [7]): 8.83%

COc1ccc(NC(=O)CN2C(=O)S/C(=C\c3ccc(O)cc3)C2=O)cc1
IC50 ([8]; read-out: IC50): 1.65 µM
IC50 [9]: 5.3 µM
Ratio IC50 (Rattus norvegicus [10]): 3.2

O=C(CN1C(=O)S/C(=C\c2ccccc2)C1=O)NC1CC1
inhibition (Rattus norvegicus [7]): 2.85%
solubility [6]: Insoluble

CN(C)CCC=C1c2ccccc2CCc2ccccc21 [AMITRIPTYLINE]
logD (physchem [11]): 2.85

O=C(CN1C(=O)S/C(=C\c2ccc(O)cc2)C1=O)Nc1ccc(F)cc1
IC50 ([8]; read-out: IC50): 1.47 µM
IC50 [9]: 8.06 µM
Ratio IC50 (Rattus norvegicus [10]): 5.4

COc1ccc(NC(=O)CN2C(=O)S/C(=C\c3ccccc3)C2=O)cc1
inhibition (Rattus norvegicus [7]): 29.2%
solubility [6]: Insoluble

CCc1ccccc1NC(=O)CN1C(=O)S/C(=C\c2ccc(O)cc2)C1=O
IC50 ([8]; read-out: IC50): 1.9 µM
IC50 [9]: 2.85 µM
Ratio IC50 (Rattus norvegicus [10]): 1.5

O=C(CN1C(=O)S/C(=C\c2ccc(O)cc2)C1=O)Nc1ccccc1
IC50 ([8]; read-out: IC50): 2.93 µM
IC50 [9]: 3.91 µM
Ratio IC50 (Rattus norvegicus [10]): 1.3

CCN(CC)C(=O)CN1C(=O)S/C(=C\c2cccc(O)c2)C1=O
inhibition (Rattus norvegicus [5]): 0%
solubility [6]: Insoluble

O=C(CN1C(=O)S/C(=C\c2ccc(O)cc2)C1=O)Nc1ccccc1Cl
IC50 ([8]; read-out: IC50): 0.95 µM
IC50 [9]: 13.5 µM
solubility at 2 h, 200 µM (physchem [4]): 5.24 µM (≈ 2.04 µg/mL)
logD (physchem [11]): 3.68

COc1ccc(/C=C2\SC(=O)N(CC(=O)Nc3ccccc3)C2=O)cc1O
IC50 [8]: Nd(Insoluble)
inhibition (Rattus norvegicus [7]): 29.9%

O=C(CCCN1CCC(O)(c2ccc(Cl)cc2)CC1)c1ccc(F)cc1 [HALOPERIDOL]
solubility at 2 h, 200 µM (physchem [4]): 73.3 µM (≈ 27.6 µg/mL)

CCCCNC(=O)CN1C(=O)S/C(=C\c2ccc(O)cc2)C1=O
IC50 ([8]; read-out: IC50): 5.68 µM
IC50 [9]: 48.5 µM
Ratio IC50 (Rattus norvegicus [10]): 8.5
solubility [6]: Insoluble

CCN(CC)C(=O)CN1C(=O)S/C(=C/c2ccc(OC)c(OC)c2)C1=O
IC50 ([8]; read-out: IC50): 22.4 µM
inhibition (Rattus norvegicus [12]): 81.8%

CCN(CC)C(=O)CN1C(=O)S/C(=C\c2ccc(O)c(OC)c2)C1=O
IC50 ([8]; read-out: IC50): 56 µM
inhibition (Rattus norvegicus [12]): 48%

C=C[C@H]1C[N@@]2CC[C@H]1C[C@@H]2[C@@H](O)c1ccnc2ccc(OC)cc12 [QUINIDINE]
Papp A→B at 2.5 h (in vitro [1]): 3.27 ×10⁻⁶ cm/s
Papp B→A at 2.5 h (in vitro [2]): 21.4 ×10⁻⁶ cm/s
efflux ratio (in vitro [3]): 6.6

COCCc1ccc(OCC(O)CNC(C)C)cc1 (centres undefined) [METOPROLOL]
logD (physchem [11]): 0.05

CCN(CC)C(=O)CN1C(=O)S/C(=C\c2ccc(OC)c(O)c2)C1=O
inhibition (Rattus norvegicus [12]): 31.6%

O=C(CN1C(=O)S/C(=C\c2cccc(O)c2)C1=O)NCc1ccccc1
IC50 ([8]; read-out: IC50): 3.25 µM
IC50 [9]: 28 µM
Ratio IC50 (Rattus norvegicus [10]): 8.6

CC(/C=C1\SC(=S)N(CC(=O)O)C1=O)=C\c1ccccc1
IC50 ([8]; read-out: IC50): 0.227 µM

CCN(CC)C(=O)CN1C(=O)S/C(=C\c2ccc(C)cc2)C1=O
inhibition (Rattus norvegicus [5]): 20.2%
solubility [6]: Insoluble

C#CCOc1ccc(/C=C2\SC(=O)N(CC(=O)NCc3ccccc3)C2=O)cc1
IC50 [8]: Nd(Insoluble)
inhibition (Rattus norvegicus [7]): 30.1%

CCN(CC)C(=O)CN1C(=O)S/C(=C\c2ccc(OC)cc2)C1=O
inhibition (Rattus norvegicus [5]): 19.5%
solubility [6]: Insoluble

NC(=O)N1c2ccccc2C=Cc2ccccc21 [CARBAMAZEPINE]
Papp A→B at 2.5 h (in vitro [13]): 26.2 ×10⁻⁶ cm/s
Papp B→A at 2.5 h (in vitro [14]): 24.8 ×10⁻⁶ cm/s
efflux ratio (in vitro [15]): 0.9

CCN(CC)C(=O)CN1C(=O)S/C(=C\c2cccc(Cl)c2)C1=O
inhibition (Rattus norvegicus [5]): 0%
solubility [6]: Insoluble

CCN(CC)C(=O)CN1C(=O)S/C(=C\c2ccc(Cl)cc2)C1=O
inhibition (Rattus norvegicus [5]): 14%
solubility [6]: Insoluble

Cc1ncc2n1-c1ccc(Cl)cc1C(c1ccccc1F)=NC2 [MIDAZOLAM]
logD (physchem [11]): 3.28

CCN(CC)C(=O)CN1C(=O)S/C(=C\c2ccc(O)cc2)C1=O
IC50 ([8]; read-out: IC50): 1.33 µM
inhibition (Rattus norvegicus [7]): 77.7%
IC50 [9]: 12.5 µM
Ratio IC50 (Rattus norvegicus [10]): 9.4
solubility [6]: Insoluble

CCCCNC(=O)CN1C(=O)S/C(=C\c2ccc(OC)cc2)C1=O
IC50 ([8]; read-out: IC50): 20.3 µM
IC50 [9]: 17 µM
Ratio IC50 (Rattus norvegicus [10]): 0.8
solubility [6]: Insoluble

O=C(CN1C(=O)S/C(=C\c2ccc(O)cc2)C1=O)NCc1ccccc1
IC50 ([8]; read-out: IC50): 19.8 µM

CCOc1ccc(NC(=O)CN2C(=O)S/C(=C\c3ccc(OC)c(O)c3)C2=O)cc1
IC50 [8]: Nd(Insoluble)
inhibition (Rattus norvegicus [7]): 25.3%

COc1ccc(/C=C2\SC(=O)N(CC(=O)NCc3ccccc3)C2=O)cc1O
IC50 ([8]; read-out: IC50): 10.9 µM

CCCCNC(=O)CN1C(=O)S/C(=C\c2ccc(Cl)cc2)C1=O
inhibition (Rattus norvegicus [7]): 6.53%
solubility [6]: Insoluble

COc1cc2nc(N3CCN(C(=O)c4ccco4)CC3)nc(N)c2cc1OC [PRAZOSIN]
Papp A→B at 2.5 h (in vitro [1]): 6.85 ×10⁻⁶ cm/s
Papp B→A at 2.5 h (in vitro [2]): 12.9 ×10⁻⁶ cm/s
efflux ratio (in vitro [3]): 1.9

O=C(CN1C(=O)S/C(=C\c2ccc(OCc3ccc(Cl)cc3Cl)cc2)C1=O)Nc1ccccc1
IC50 [8]: Nd(Insoluble)
inhibition (Rattus norvegicus [7]): 21.8%

CCN(CC)C(=O)CN1C(=O)S/C(=C\c2ccccc2)C1=O
IC50 ([8]; read-out: IC50): 23.5 µM
inhibition (Rattus norvegicus [7]): 16.8%
solubility [6]: Insoluble

O=C(CN1C(=O)S/C(=C\c2ccc(OCc3ccc(Cl)cc3Cl)cc2)C1=O)NCc1ccccc1
IC50 [8]: Nd(Insoluble)
inhibition (Rattus norvegicus [7]): 11.9%

O=c1[nH]c2ccccc2n1CCCN1CCC(n2c(=O)[nH]c3cc(Cl)ccc32)CC1 [DOMPERIDONE]
Papp A→B at 2.5 h (in vitro [13]): 2.5 ×10⁻⁶ cm/s
Papp B→A at 2.5 h (in vitro [14]): 30.8 ×10⁻⁶ cm/s
efflux ratio (in vitro [15]): 12.2
